Measured values from article PMC4994520 (European journal of medicinal chemistry, 2012).
Read-outs that look alike come from different tables or passages of the source.

Legend:
PDE10A = PDE10A (Homo sapiens, UniProt Q9Y233); test: PDE10A inhibition, IMAP fluorescence polarization assay; assay type: biochemical
PDE1A = PDE1A (Homo sapiens, UniProt P54750); test: PDE1A inhibition, IMAP fluorescence polarization assay; assay type: biochemical
PDE3A = PDE3A (Homo sapiens, UniProt Q14432); test: PDE3A inhibition, IMAP fluorescence polarization assay; assay type: biochemical
human PDE5 [1] = molecular target: T1, human PDE5 (Homo sapiens, UniProt O76074); test: PDE5 inhibition, IMAP fluorescence polarization phosphodiesterase assay; assay type: biochemical; details: for inhibition at 10 µM: read-out: % PDE5 inhibition at 10 μM
PDE3B = PDE3B (Homo sapiens, UniProt Q13370); test: PDE3B inhibition, IMAP fluorescence polarization assay; assay type: biochemical
PDE2A = PDE2A (Homo sapiens, UniProt O00408); test: PDE2A inhibition, IMAP fluorescence polarization assay; assay type: biochemical
PDE9A = PDE9A (Homo sapiens, UniProt O76083); test: PDE9A inhibition, IMAP fluorescence polarization assay; assay type: biochemical
PDE11A = PDE11A (Homo sapiens, UniProt Q9HCR9); test: PDE11A inhibition, IMAP fluorescence polarization assay; assay type: biochemical; details: for selectivity profile (selectivity index) PDE5 versus PDE11: cGMP as the substrate
human PDE5 [2] = molecular target: T1, human PDE5; details: tadalafil and earlier analogues, Table 1; cited from earlier work
[3] = PDE10A inhibition IC50 μM, substrate cAMP
[4] = PDE10A inhibition IC50 μM, substrate cGMP
[5] = read-out: PDE1A inhibition IC50 μM, substrate cGMP
[6] = read-out: PDE3A inhibition IC50 μM, substrate cGMP
[7] = read-out: PDE3B inhibition IC50 μM, substrate cGMP
[8] = read-out: PDE2A inhibition IC50 μM, substrate cGMP
[9] = PDE11A inhibition IC50 μM, substrate cAMP
[10] = PDE11A inhibition IC50 μM, substrate cGMP

PDE3A, sequence (Q14432 whole entry): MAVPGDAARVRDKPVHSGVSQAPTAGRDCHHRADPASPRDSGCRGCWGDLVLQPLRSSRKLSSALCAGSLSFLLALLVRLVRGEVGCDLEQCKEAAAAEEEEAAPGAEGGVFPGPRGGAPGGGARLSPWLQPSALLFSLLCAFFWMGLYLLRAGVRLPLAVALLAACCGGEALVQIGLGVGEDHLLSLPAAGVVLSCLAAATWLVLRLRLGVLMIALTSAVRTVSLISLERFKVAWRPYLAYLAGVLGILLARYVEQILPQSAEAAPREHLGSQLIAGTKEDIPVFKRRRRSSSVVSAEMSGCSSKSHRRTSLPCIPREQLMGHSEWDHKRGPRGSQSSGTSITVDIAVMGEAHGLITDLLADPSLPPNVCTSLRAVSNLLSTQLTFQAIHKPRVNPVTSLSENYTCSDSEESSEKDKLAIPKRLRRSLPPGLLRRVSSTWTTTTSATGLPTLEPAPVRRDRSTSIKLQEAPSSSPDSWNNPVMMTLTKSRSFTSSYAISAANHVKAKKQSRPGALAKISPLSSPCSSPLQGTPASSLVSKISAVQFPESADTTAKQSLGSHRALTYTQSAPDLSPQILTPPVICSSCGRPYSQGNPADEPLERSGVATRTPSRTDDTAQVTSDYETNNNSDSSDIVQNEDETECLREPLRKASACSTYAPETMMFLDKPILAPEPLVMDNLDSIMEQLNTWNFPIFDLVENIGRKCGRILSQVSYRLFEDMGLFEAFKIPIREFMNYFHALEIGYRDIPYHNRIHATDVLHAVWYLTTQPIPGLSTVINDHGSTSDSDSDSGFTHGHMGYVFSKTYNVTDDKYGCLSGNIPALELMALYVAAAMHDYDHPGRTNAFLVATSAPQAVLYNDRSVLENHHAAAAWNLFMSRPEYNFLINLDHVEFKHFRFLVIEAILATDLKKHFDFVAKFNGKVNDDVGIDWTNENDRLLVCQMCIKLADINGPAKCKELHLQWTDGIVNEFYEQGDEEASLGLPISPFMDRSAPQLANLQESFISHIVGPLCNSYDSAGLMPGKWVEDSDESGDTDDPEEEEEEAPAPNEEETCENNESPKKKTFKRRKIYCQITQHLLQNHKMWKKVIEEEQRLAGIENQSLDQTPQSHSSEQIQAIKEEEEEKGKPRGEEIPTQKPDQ
PDE2A, sequence (O00408 whole entry): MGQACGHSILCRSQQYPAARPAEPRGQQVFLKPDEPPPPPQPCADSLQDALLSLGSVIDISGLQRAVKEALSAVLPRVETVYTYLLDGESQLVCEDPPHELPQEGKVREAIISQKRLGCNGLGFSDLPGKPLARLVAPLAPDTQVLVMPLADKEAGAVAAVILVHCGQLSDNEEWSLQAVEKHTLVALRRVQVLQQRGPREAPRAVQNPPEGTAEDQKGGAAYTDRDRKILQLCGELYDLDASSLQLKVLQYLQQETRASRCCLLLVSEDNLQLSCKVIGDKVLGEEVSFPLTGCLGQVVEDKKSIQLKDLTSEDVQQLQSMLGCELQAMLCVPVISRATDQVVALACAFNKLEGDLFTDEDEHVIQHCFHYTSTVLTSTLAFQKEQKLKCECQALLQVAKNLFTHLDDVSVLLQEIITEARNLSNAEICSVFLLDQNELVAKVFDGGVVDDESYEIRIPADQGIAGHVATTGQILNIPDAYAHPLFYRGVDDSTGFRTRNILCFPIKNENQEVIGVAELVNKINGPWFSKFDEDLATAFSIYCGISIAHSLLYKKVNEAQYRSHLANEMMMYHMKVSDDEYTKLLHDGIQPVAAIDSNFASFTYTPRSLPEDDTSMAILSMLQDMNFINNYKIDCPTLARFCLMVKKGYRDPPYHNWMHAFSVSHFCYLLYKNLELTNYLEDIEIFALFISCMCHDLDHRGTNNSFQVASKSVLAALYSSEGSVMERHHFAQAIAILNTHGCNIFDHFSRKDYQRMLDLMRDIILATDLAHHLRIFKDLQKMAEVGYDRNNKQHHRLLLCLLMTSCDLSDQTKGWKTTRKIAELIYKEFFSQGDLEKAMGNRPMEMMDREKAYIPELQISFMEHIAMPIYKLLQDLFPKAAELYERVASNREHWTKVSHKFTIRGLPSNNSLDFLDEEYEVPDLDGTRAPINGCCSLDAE
PDE10A, sequence (Q9Y233 290-1055 limits assumed): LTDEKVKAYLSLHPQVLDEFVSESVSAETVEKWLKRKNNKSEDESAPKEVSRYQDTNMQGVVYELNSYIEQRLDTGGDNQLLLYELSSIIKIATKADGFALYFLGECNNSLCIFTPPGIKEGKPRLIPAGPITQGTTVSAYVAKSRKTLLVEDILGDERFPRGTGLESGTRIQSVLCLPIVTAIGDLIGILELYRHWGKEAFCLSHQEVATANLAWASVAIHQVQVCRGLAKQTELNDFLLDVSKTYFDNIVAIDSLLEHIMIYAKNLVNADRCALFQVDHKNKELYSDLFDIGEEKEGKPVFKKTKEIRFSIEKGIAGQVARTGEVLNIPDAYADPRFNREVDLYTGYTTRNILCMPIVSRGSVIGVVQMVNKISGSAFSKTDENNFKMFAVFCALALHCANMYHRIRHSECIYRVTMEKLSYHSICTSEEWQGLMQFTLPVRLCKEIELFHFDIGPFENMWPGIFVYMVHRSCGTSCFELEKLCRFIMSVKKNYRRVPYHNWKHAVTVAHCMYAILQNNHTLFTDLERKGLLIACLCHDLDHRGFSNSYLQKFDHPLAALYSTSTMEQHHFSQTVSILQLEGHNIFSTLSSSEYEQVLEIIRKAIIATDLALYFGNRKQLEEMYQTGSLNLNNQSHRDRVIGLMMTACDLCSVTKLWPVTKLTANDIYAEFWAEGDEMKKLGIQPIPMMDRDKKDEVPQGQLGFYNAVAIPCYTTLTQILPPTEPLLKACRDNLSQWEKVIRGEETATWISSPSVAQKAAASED
PDE1A, sequence (P54750 whole entry): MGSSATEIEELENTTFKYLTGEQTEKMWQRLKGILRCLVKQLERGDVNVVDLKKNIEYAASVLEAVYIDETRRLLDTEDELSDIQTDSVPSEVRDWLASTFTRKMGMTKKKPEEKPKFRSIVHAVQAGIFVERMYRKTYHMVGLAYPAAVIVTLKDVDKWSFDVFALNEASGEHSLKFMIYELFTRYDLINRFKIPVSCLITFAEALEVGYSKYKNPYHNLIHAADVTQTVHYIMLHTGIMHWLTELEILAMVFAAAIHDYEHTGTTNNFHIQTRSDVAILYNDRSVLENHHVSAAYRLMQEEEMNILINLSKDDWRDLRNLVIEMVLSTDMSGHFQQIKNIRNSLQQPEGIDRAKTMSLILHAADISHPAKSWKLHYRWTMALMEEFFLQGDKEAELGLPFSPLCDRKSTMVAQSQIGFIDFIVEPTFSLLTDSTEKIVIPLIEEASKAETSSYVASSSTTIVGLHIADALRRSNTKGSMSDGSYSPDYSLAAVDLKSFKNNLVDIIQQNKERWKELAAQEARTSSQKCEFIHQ
PDE11A, sequence (Q9HCR9 whole entry): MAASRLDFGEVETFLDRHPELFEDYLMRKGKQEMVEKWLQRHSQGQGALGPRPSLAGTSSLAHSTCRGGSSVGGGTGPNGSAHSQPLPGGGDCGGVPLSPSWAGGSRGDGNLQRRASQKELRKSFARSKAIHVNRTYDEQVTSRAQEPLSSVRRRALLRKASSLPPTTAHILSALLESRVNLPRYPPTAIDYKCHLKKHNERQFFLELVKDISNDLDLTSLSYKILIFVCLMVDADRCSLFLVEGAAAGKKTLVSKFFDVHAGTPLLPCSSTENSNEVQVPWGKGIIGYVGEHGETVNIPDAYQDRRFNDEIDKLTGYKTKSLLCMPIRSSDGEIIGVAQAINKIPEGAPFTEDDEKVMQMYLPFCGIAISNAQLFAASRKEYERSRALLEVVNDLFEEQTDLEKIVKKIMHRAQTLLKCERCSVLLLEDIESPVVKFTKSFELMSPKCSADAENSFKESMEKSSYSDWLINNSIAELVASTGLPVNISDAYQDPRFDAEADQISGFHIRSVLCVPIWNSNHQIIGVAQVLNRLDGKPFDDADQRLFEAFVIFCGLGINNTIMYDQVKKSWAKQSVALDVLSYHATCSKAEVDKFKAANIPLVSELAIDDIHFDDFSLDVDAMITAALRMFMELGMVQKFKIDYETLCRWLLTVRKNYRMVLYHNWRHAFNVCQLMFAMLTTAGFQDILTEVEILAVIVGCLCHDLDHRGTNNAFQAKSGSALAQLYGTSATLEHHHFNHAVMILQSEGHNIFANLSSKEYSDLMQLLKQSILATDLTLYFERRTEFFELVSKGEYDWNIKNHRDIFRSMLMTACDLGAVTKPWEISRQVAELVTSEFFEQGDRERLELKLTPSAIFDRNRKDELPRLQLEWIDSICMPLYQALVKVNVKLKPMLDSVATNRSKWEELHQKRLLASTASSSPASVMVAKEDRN
PDE9A, sequence (O76083 whole entry): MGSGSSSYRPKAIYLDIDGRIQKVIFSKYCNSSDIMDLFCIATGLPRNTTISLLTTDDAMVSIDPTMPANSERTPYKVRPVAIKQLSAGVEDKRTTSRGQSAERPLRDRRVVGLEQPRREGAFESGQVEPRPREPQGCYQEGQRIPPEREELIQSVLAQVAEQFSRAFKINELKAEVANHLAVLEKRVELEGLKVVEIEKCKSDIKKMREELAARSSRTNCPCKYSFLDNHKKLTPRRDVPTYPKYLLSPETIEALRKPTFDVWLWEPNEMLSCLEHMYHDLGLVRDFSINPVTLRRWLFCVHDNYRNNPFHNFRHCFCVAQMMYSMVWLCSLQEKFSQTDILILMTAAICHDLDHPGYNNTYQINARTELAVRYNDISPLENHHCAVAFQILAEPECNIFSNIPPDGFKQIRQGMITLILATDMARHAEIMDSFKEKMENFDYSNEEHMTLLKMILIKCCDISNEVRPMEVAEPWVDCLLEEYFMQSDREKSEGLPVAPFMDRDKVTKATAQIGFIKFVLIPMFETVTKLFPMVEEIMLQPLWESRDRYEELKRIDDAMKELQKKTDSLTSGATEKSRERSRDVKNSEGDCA

SMILES | IC50 (PDE10A; [3]) [µM] | IC50 (PDE10A; [4]) [µM] | IC50 (PDE1A) [µM] | IC50 (PDE1A; [5]) [µM] | IC50 (PDE3A) [µM] | IC50 (PDE3A; [6]) [µM] | IC50 (human PDE5 [1]) [µM] | inhibition at 10 µM (human PDE5 [1]) [%] | IC50 (PDE3B) [µM] | IC50 (PDE3B; [7]) [µM] | IC50 (PDE2A) [µM] | IC50 (PDE2A; [8]) [µM] | IC50 (PDE9A) [µM] | IC50 (PDE11A; [9]) [µM] | IC50 (PDE11A; [10]) [µM] | selectivity profile (selectivity index) PDE5 versus PDE11 (PDE11A) | also measured
CCN1C(=O)[C@@H]2Cc3c([nH]c4ccccc34)[C@@H](c3ccc(Br)cc3)N2C1=O [Compound 8, (5R,11aS)-5-(4-Bromophenyl)-2-ethyl-5,6,11,11a-tetrahydro-1H-imidazo[1′,5′:1,6]pyrido[3,4-b]indole-1,3(2H)-dione] | > 50 | > 50 | > 50 | > 50 | > 50 | > 50 | 0.051 | 101 | > 50 | > 50 | > 50 | > 50 | > 50 | 44 | 35.7 | 700 | –
CCCCN1CC(=O)N2[C@H](c3ccc(Br)cc3)c3[nH]c4ccccc4c3C[C@@H]2C1=O [Compound 33] | – | – | – | > 50 | – | > 50 | – | – | – | > 50 | – | > 50 | – | – | – | 67 | IC50 (PDE10A; read-out: PDE10A inhibition IC50 μM, substrate cAMP): > 50 µM; IC50 (PDE10A; read-out: PDE10A inhibition IC50 μM, substrate cGMP): > 50 µM; IC50 (PDE1A; read-out: PDE1A inhibition IC50 μM, substrate cAMP): > 50 µM; IC50 (PDE3A; read-out: PDE3A inhibition IC50 μM, substrate cAMP): > 50 µM; % PDE5 inhibition at 10 μM (human PDE5 [1]; 10 μM, triplicate): 87%; IC50 (human PDE5 [1]; read-out: IC50 μM (PDE5), 8 concentrations 1 nM–10 μM): 0.009 µM; IC50 (human PDE5 [1]; read-out: PDE5A inhibition IC50 μM, substrate cAMP (as printed in sub-head)): 0.009 µM; IC50 (PDE3B; read-out: PDE3B inhibition IC50 μM, substrate cAMP): > 50 µM; IC50 (PDE2A; read-out: PDE2A inhibition IC50 μM, substrate cAMP): > 50 µM; IC50 (PDE9A; read-out: PDE9A inhibition IC50 μM, substrate cGMP): > 50 µM; IC50 (PDE11A; read-out: PDE11A inhibition IC50 μM, substrate cAMP): 1.2 µM; IC50 (PDE11A; read-out: PDE11A inhibition IC50 μM, substrate cGMP): 0.6 µM
CN1CC(=O)N2[C@H](c3ccc4c(c3)OCO4)c3[nH]c4ccccc4c3C[C@@H]2C1=O [Compound I, tadalafil, reference compound] | > 50 | > 50 | > 50 | > 50 | > 50 | > 50 | – | – | > 50 | > 50 | > 50 | > 50 | > 50 | – | – | – | % PDE5 inhibition at 10 μM (human PDE5 [2]): 100%

The next lines start with results.

IC50 (PDE10A; [3]) [µM] | IC50 (PDE10A; [4]) [µM] | IC50 (PDE1A) [µM] | IC50 (PDE1A; [5]) [µM] | IC50 (PDE3A) [µM] | IC50 (PDE3A; [6]) [µM] | IC50 (human PDE5 [1]) [µM] | inhibition at 10 µM (human PDE5 [1]) [%] | IC50 (PDE3B) [µM] | IC50 (PDE3B; [7]) [µM] | IC50 (PDE2A) [µM] | IC50 (PDE2A; [8]) [µM] | IC50 (PDE9A) [µM] | IC50 (PDE11A; [9]) [µM] | IC50 (PDE11A; [10]) [µM] | selectivity profile (selectivity index) PDE5 versus PDE11 (PDE11A) | SMILES | also measured
> 50 | 41.7 | > 50 | > 50 | > 50 | > 50 | 0.019 | 98 | > 50 | > 50 | > 50 | > 50 | > 50 | 0.6 | 0.27 | 14 | CN1CC(=O)N2[C@H](c3ccc(Br)cc3)c3[nH]c4ccccc4c3C[C@@H]2C1=O [Compound 25, (6R,12aR)-6-(4-Bromophenyl)-2-methyl-2,3,6,7,12,12a-hexahydropyrazino [1′,2′:1,6]pyrido[3,4-b]indole-1,4-dione] | –
> 50 | > 50 | > 50 | > 50 | > 50 | > 50 | 0.012 | 91 | > 50 | > 50 | > 50 | > 50 | > 50 | 1.3 | 1.13 | 94 | CN1CC(=O)N2[C@H](c3ccc(Br)cc3)c3[nH]c4ccccc4c3C[C@H]2C1=O [Compound 28, (6R,12aS)-6-(4-Bromophenyl)-2-methyl-2,3,6,7,12,12a-hexahydropyrazino [1′,2′:1,6]pyrido[3,4-b]indole-1,4-dione] | –
26.1 | 14.7 | > 50 | > 50 | > 50 | > 50 | 0.003 | 96 | > 50 | > 50 | > 50 | > 50 | > 50 | 0.3 | 0.27 | 90 | CCN1CC(=O)N2[C@H](c3ccc(Br)cc3)c3[nH]c4ccccc4c3C[C@@H]2C1=O [Compound 29, (6R,12aR)-2-Ethyl-6-(4-bromophenyl)-2,3,6,7,12,12a-hexahydropyrazino [1′,2′:1,6]pyrido[3,4-b]indole-1,4-dione] | times improved activity compared to five member congener 5 (human PDE5 [1]; PDE5 IC50, 29 versus 5): 1000 times
